According to ChEMBL document CHEMBL1671624, “Efficacy of quinoxaline-2-carboxylate 1,4-di-N-oxide derivatives in experimental tuberculosis” (Antimicrob Agents Chemother, 2008):
Values after ≈ are worked out from the molar mass of the structure shown.

Assays:
Format in all cases: functional
[1] = test system: Mycobacterium tuberculosis; test: Antibacterial activity against isoniazid-resistant Mycobacterium tuberculosis by microplate Alamar Blue assay
[2] = test system: Mycobacterium tuberculosis; test: Antibacterial activity against rifampin-resistant Mycobacterium tuberculosis by microplate Alamar Blue assay
[3] = test system: Mycobacterium tuberculosis; test: Antibacterial activity against thiacetazone-resistant Mycobacterium tuberculosis by microplate Alamar Blue assay
[4] = test system: Mycobacterium tuberculosis; test: Antibacterial activity against ethambutol-resistant Mycobacterium tuberculosis by microplate Alamar Blue assay
[5] = test system: Mycobacterium tuberculosis; test: Antibacterial activity against ciprofloxacin-resistant Mycobacterium tuberculosis by microplate Alamar Blue assay
[6] = test system: Mycobacterium tuberculosis; test: Antibacterial activity against kanamycin-resistant Mycobacterium tuberculosis by microplate Alamar Blue assay
[7] = test system: Mycobacterium tuberculosis; test: Antibacterial activity against ethionamide-resistant Mycobacterium tuberculosis by microplate Alamar Blue assay

SMILES | MIC [1] | MIC [2] | MIC [3] | MIC [4] | MIC [5] | MIC [6] | MIC [7]
CCOC(=O)c1c(C)[n+]([O-])c2cc(C)c(C)cc2[n+]1[O-] | 6.25 µg/mL (≈ 22.6 µM) | ≤ 3.13 µg/mL | ≤ 3.13 µg/mL | ≤ 3.13 µg/mL | 12.5 µg/mL (≈ 45.2 µM) | ≤ 3.13 µg/mL | 6.25 µg/mL (≈ 22.6 µM)
CCOC(=O)c1c(C)[n+]([O-])c2ccc(C)cc2[n+]1[O-] |  | 3.13 µg/mL (≈ 11.9 µM) | 0.39 µg/mL (≈ 1.49 µM) |  | 6.25 µg/mL (≈ 23.8 µM) |  | 6.25 µg/mL (≈ 23.8 µM)
CCOC(=O)c1c(C)[n+]([O-])c2ccccc2[n+]1[O-] | 1.56 µg/mL (≈ 6.28 µM) | 1.56 µg/mL (≈ 6.28 µM) |  |  | 3.13 µg/mL (≈ 12.6 µM) | 1.56 µg/mL (≈ 6.28 µM) | 
CCOC(=O)c1c(C)[n+]([O-])c2cc(Cl)c(Cl)cc2[n+]1[O-] | 0.39 µg/mL (≈ 1.23 µM) | 0.2 µg/mL (≈ 0.631 µM) |  | 0.2 µg/mL (≈ 0.631 µM) | 0.2 µg/mL (≈ 0.631 µM) | ≤ 0.1 µg/mL | 
COCCOC(=O)c1c(C)[n+]([O-])c2cc(Cl)c(Cl)cc2[n+]1[O-] | ≤ 0.2 µg/mL | ≤ 0.2 µg/mL | 0.39 µg/mL (≈ 1.12 µM) |  | 0.39 µg/mL (≈ 1.12 µM) |  | 0.78 µg/mL (≈ 2.25 µM)
Cc1ccc2c(c1)[n+]([O-])c(C(=O)OCc1ccccc1)c(C)[n+]2[O-] |  | 0.39 µg/mL (≈ 1.2 µM) | 0.39 µg/mL (≈ 1.2 µM) |  | 0.39 µg/mL (≈ 1.2 µM) |  | 1.56 µg/mL (≈ 4.81 µM)
Cc1c(C(=O)OCc2ccccc2)[n+]([O-])c2ccccc2[n+]1[O-] | 0.2 µg/mL (≈ 0.645 µM) | 0.2 µg/mL (≈ 0.645 µM) | 0.2 µg/mL (≈ 0.645 µM) |  | 0.1 µg/mL (≈ 0.322 µM) |  | 0.4 µg/mL (≈ 1.29 µM)
Cc1c(C(=O)OCc2ccccc2)[n+]([O-])c2cc(Cl)c(Cl)cc2[n+]1[O-] | 1.56 µg/mL (≈ 4.11 µM) | 0.39 µg/mL (≈ 1.03 µM) | 0.78 µg/mL (≈ 2.06 µM) | 0.78 µg/mL (≈ 2.06 µM) | 0.39 µg/mL (≈ 1.03 µM) | 0.39 µg/mL (≈ 1.03 µM) | 0.78 µg/mL (≈ 2.06 µM)
COC(=O)c1c(C)[n+]([O-])c2ccc(C)cc2[n+]1[O-] | 6.25 µg/mL (≈ 25.2 µM) | 3.13 µg/mL (≈ 12.6 µM) | 1.56 µg/mL (≈ 6.28 µM) | 25 µg/mL (≈ 101 µM) | 6.25 µg/mL (≈ 25.2 µM) | 25 µg/mL (≈ 101 µM) | 3.13 µg/mL (≈ 12.6 µM)
COC(=O)c1c(C)[n+]([O-])c2cc(C)c(C)cc2[n+]1[O-] | 3.13 µg/mL (≈ 11.9 µM) | 3.13 µg/mL (≈ 11.9 µM) | ≤ 1.56 µg/mL | ≤ 1.56 µg/mL | 3.13 µg/mL (≈ 11.9 µM) | 3.13 µg/mL (≈ 11.9 µM) | 3.13 µg/mL (≈ 11.9 µM)
CCOC(=O)c1c(C)[n+]([O-])c2ccc(Cl)cc2[n+]1[O-] | 0.39 µg/mL (≈ 1.38 µM) | 0.39 µg/mL (≈ 1.38 µM) |  | 0.39 µg/mL (≈ 1.38 µM) | 0.78 µg/mL (≈ 2.76 µM) | 0.39 µg/mL (≈ 1.38 µM) | 
